{"source": "paper PMC5962878", "about": "“The Somatostatin Receptor-4 Agonist J-2156 Alleviates Mechanical Hypersensitivity in a Rat Model of Breast Cancer Induced Bone Pain” (Frontiers in Pharmacology, 2018)", "key": {"[1]": {"molecular_target": "T1, human somatostatin receptor type 5 (H-SST5) (Homo sapiens, UniProt P35346)", "T1 construct": "gene SSTR5; stably expressed in CHO-K1, membranes from Perkin Elmer; printed catalogue number ES-522-M400UA is the same as for type 3 (likely misprint)", "T1 sequence (P35346 whole entry)": "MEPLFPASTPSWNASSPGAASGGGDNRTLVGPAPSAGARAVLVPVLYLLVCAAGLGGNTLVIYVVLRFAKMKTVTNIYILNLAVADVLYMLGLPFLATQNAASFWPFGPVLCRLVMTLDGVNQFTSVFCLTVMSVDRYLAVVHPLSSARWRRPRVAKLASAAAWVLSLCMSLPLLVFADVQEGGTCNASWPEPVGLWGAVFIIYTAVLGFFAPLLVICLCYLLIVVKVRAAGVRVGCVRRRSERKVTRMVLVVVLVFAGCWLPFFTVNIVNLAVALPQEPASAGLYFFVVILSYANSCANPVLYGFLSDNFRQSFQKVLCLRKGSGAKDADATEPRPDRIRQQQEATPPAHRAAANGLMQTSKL", "test": "radioligand competition, CHO-K1 membranes, […]-Tyr3-somatostatin-14", "assay_type": "binding", "settings": "read-out: Mean (±SEM) Ki values (nM) / H-SST5 receptor"}, "[2]": {"molecular_target": "T2, rat SST4 receptor (R-SST4) (Rattus norvegicus, UniProt P30937)", "T2 construct": "gene Sstr4; H4 cells for cAMP", "T2 sequence (P30937 whole entry)": "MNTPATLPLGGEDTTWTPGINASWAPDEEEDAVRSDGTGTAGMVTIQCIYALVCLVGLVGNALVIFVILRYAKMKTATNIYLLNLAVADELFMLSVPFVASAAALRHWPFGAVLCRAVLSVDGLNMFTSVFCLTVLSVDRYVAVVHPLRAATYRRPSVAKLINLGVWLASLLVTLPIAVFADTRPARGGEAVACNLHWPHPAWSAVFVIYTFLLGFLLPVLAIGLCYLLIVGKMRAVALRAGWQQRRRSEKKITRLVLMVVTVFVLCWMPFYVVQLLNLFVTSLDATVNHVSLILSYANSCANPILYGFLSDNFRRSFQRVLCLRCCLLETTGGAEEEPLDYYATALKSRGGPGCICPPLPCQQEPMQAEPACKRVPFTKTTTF", "test": "LANCE cAMP, inhibition of forskolin-stimulated cAMP, H4 cells", "assay_type": "cell-based", "settings": "read-out: Mean (±SEM) IC50 values (nM) / R-SST4"}, "[3]": {"molecular_target": "T3, human somatostatin receptor type 3 (H-SST3) (Homo sapiens, UniProt P32745)", "T3 construct": "gene SSTR3; stably expressed in CHO-K1, membranes from Perkin Elmer", "T3 sequence (P32745 whole entry)": "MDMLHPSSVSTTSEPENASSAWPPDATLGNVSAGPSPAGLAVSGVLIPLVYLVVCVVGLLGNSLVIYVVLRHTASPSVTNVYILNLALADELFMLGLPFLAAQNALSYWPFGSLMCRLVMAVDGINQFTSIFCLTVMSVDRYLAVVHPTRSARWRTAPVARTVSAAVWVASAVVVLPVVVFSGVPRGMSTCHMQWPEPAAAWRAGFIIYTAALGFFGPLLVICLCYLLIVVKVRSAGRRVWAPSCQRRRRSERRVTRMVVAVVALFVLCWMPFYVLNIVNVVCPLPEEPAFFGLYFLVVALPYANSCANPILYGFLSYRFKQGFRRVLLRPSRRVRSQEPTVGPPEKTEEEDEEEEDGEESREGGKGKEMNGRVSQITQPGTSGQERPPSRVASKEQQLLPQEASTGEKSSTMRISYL", "test": "radioligand competition, CHO-K1 membranes, […]-Tyr3-somatostatin-14", "assay_type": "binding", "settings": "read-out: Mean (±SEM) Ki values (nM) / H-SST3 receptor"}, "[4]": {"molecular_target": "T4, human somatostatin receptor type 1 (H-SST1) (Homo sapiens, UniProt P30872)", "T4 construct": "gene SSTR1; stably expressed in CHO-K1, membranes from Perkin Elmer", "T4 sequence (P30872 whole entry)": "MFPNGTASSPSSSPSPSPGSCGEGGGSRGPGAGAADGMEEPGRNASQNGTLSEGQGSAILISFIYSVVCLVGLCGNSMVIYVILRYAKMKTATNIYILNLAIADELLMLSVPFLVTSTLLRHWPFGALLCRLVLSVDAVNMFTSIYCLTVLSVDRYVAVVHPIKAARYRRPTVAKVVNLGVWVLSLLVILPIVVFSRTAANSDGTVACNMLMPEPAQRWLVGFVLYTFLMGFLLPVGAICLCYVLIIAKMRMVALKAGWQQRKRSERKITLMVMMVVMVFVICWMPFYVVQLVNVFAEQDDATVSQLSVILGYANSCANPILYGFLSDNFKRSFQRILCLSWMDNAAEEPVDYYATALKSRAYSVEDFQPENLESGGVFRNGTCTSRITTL", "test": "radioligand competition, CHO-K1 membranes, […]-Tyr3-somatostatin-14", "assay_type": "binding", "settings": "read-out: Mean (±SEM) Ki values (nM) / H-SST1 receptor"}, "[5]": {"molecular_target": "T5, human SST4 receptor (H-SST4) (Homo sapiens, UniProt P31391)", "T5 construct": "gene SSTR4; H4 cells (Perkin Elmer) for cAMP", "T5 sequence (P31391 whole entry)": "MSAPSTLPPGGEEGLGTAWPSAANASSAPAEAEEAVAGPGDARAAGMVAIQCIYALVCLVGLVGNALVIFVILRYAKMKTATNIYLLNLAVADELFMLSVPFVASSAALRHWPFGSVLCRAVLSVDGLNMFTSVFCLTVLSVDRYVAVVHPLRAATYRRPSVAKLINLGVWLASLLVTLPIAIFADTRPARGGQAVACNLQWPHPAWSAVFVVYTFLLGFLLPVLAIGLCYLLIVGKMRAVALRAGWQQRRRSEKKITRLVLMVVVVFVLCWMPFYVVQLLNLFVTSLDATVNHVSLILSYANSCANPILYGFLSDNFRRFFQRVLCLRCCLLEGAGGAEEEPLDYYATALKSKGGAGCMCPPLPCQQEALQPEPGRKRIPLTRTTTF", "test": "radioligand competition, CHO-K1 membranes, […]-Tyr3-somatostatin-14", "assay_type": "binding", "settings": "read-out: Mean (±SEM) Ki values (nM) / H-SST4 receptor"}, "[6]": {"molecular_target": "T6, human somatostatin receptor type 2 (H-SST2) (Homo sapiens, UniProt P30874)", "T6 construct": "gene SSTR2; stably expressed in CHO-K1, membranes from Perkin Elmer", "T6 sequence (P30874 whole entry)": "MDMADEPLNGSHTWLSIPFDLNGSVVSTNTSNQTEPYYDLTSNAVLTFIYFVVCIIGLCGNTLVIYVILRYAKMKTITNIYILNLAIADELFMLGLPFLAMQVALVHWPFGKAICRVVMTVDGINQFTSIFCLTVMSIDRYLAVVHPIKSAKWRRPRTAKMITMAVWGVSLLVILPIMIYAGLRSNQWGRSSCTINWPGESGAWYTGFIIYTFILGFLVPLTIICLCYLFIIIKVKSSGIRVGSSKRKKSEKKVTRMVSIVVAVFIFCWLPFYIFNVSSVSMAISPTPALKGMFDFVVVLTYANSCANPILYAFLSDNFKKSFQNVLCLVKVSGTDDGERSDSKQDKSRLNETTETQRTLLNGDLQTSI", "test": "radioligand competition, CHO-K1 membranes, […]-Tyr3-somatostatin-14", "assay_type": "binding", "settings": "read-out: Mean (±SEM) Ki values (nM) / H-SST2 receptor"}, "[7]": {"molecular_target": "T5, human SST4 receptor (H-SST4)", "test": "LANCE cAMP, inhibition of forskolin-stimulated cAMP, H4 cells", "assay_type": "cell-based", "settings": "read-out: Mean (±SEM) IC50 values (nM) / H-SST4"}, "[8]": {"molecular_target": "T2, rat SST4 receptor (R-SST4)", "test": "radioligand competition, CHO-K1 membranes, […]-Tyr3-somatostatin-14", "assay_type": "binding", "settings": "read-out: Mean (±SEM) Ki values (nM) / R-SST4 receptor"}}, "data": [{"compound": "Cc1ccc(S(=O)(=O)N[C@@H](CCN)C(=O)N[C@@H](Cc2ccccc2)C(N)=O)c2ccccc12", "note": "[J-2156, (1′S,2S)-4amino-N-(1′-carbamoyl-2′-phenylethyl)-2-(4″-methyl-1″-naphthalenesulfonylamino)butanamide]", "values": [{"measurement": "Ki", "setting": "[1]", "result": "468 ± 156", "unit": "nM"}, {"measurement": "IC50", "setting": "[2]", "result": "0.07 ± 0.005", "unit": "nM"}, {"measurement": "Ki", "setting": "[3]", "result": "234 ± 112", "unit": "nM"}, {"measurement": "Ki", "setting": "[4]", "result": "589 ± 266", "unit": "nM"}, {"measurement": "Ki", "setting": "[5]", "result": "0.56 ± 0.1", "unit": "nM"}, {"measurement": "Ki", "setting": "[6]", "result": 25100, "unit": "nM"}, {"measurement": "IC50", "setting": "[7]", "result": "0.05 ± 0.01", "unit": "nM"}, {"measurement": "Ki", "setting": "[8]", "result": "0.89 ± 0.64", "unit": "nM"}]}]}
